Patent US20100092526A1, “NANOEMULSION THERAPEUTIC COMPOSITIONS AND METHODS OF USING THE SAME” (NanoBio Corporation, priority 2008, published 2010)

Legend:
Klebsiella pneumoniae = experiment: MIC/MBC of nanoemulsions against gram-negative isolates (CLSI, alamar blue); assay type: cell-based; details: Klebsiella pneumoniae (n = 5), nanoemulsions in the presence of 5 mM EDTA
Escherichia coli = experiment: as above; assay type: cell-based; details: Escherichia coli (n = 5), nanoemulsions in the presence of 5 mM EDTA
Proteus mirabilis = experiment: as above; assay type: cell-based; details: Proteus mirabilis (n = 5), nanoemulsions in the presence of 5 mM EDTA
Acinetobacter baumannii [1] = experiment: as above; assay type: cell-based; details: Acinetobacter baumannii (n = 5)
Pseudomonas aeruginosa [2] = experiment: as above; assay type: cell-based; details: Pseudomonas aeruginosa (n = 5)
Burkholderia cepacia = experiment: as above; assay type: cell-based; details: Burkholderia cepacia (n = 5); nanoemulsions in the presence of 5 mM EDTA; in µg/mL
[3] = tested on: Stenotrophomonas maltophilia; experiment: as above; assay type: cell-based; details: Stenotrophomonas maltophilia (n = 5); nanoemulsions in the presence of 5 mM EDTA
Pseudomonas aeruginosa [4] = experiment: MIC/MBC against CF isolates (CLSI, alamar blue)
Burkholderia cenocepacia = experiment: MIC/MBC against CF isolates (CLSI, alamar blue)
[5] = tested on: Stenotrophomonas maltophilia; experiment: MIC/MBC against CF isolates (CLSI, alamar blue)
Acinetobacter baumannii [6] = experiment: MIC/MBC against clinical isolates (CLSI, alamar blue)
[7] = nanoemulsions in the presence of 5 mM EDTA
[8] = P. aeruginosa, NE with 5 mM EDTA
[9] = B. cenocepacia, NE with 5 mM EDTA
[10] = 11 CF Stenotrophomonas isolates
[11] = CF Stenotrophomonas isolate NB41
[12] = CF Stenotrophomonas isolate NB42
[13] = CF Stenotrophomonas isolate NB43
[14] = CF Stenotrophomonas isolate NB44
[15] = CF Stenotrophomonas isolate NB45
[16] = CF Stenotrophomonas isolate Steno 1
[17] = CF Stenotrophomonas isolate Steno 2
[18] = CF Stenotrophomonas isolate Steno 3
[19] = CF Stenotrophomonas isolate Steno 4
[20] = CF Stenotrophomonas isolate Steno 6
[21] = CF Stenotrophomonas isolate Steno 8
[22] = S. maltophilia, NE with 1 mM EDTA
[23] = Stenotrophomonas, each drug alone
[24] = A. baumannii, NE with 1 mM EDTA

## Colistin
Klebsiella pneumoniae
  MIC50: ≤ 0.5 µg/mL
Klebsiella pneumoniae; in µg/mL
  MIC Range: <=0.5
Escherichia coli
  MIC50: ≤ 0.5 µg/mL
Escherichia coli; in µg/mL
  MIC Range: <=0.5
Proteus mirabilis
  MIC50: > 4 µg/mL
Proteus mirabilis; in µg/mL
  MIC Range: >4
Acinetobacter baumannii [1]
  % resistant: 0.0%
  % susceptible: 100.0%
Acinetobacter baumannii [1]; [7]
  MIC50: ≤ 0.5 µg/mL
  MIC Range: <=0.5-2 ^
Pseudomonas aeruginosa [2]
  % resistant: 0.0%
  % susceptible: 100.0%
Pseudomonas aeruginosa [2]; [7]
  MIC50: 1 µg/mL
  MIC Range: <=0.5-2 ^
Burkholderia cepacia
  MIC Range: >4
[3]
  MIC50: ≤ 0.5 µg/mL
  MIC Range: <=0.5-1 ^
Pseudomonas aeruginosa [4]; 20 CF Pseudomonas isolates
  MBC 50: 4 µg/mL
  MBC 90: 8 µg/mL
  MIC50: 2 µg/mL
  MIC90: 2 µg/mL
Pseudomonas aeruginosa [4]; CF Pseudomonas isolate NB1
  MBC: >8 µg/mL
  MIC: 2 µg/mL
Pseudomonas aeruginosa [4]; CF Pseudomonas isolate NB2
  MBC: 8 µg/mL
  MIC: 1 µg/mL
Pseudomonas aeruginosa [4]; CF Pseudomonas isolate NB3
  MBC: 8 µg/mL
  MIC: 1 µg/mL
Pseudomonas aeruginosa [4]; CF Pseudomonas isolate NB4
  MBC: 4 µg/mL
  MIC: 2 µg/mL
Pseudomonas aeruginosa [4]; CF Pseudomonas isolate NB5
  MBC: 8 µg/mL
  MIC: 2 µg/mL
Pseudomonas aeruginosa [4]; CF Pseudomonas isolate NB6
  MBC: 4 µg/mL
  MIC: 2 µg/mL
Pseudomonas aeruginosa [4]; CF Pseudomonas isolate NB7
  MBC: 4 µg/mL
  MIC: 2 µg/mL
Pseudomonas aeruginosa [4]; CF Pseudomonas isolate NB8
  MBC: 8 µg/mL
  MIC: 2 µg/mL
Pseudomonas aeruginosa [4]; CF Pseudomonas isolate NB9
  MBC: 8 µg/mL
  MIC: 2 µg/mL
Pseudomonas aeruginosa [4]; CF Pseudomonas isolate NB10
  MBC: 2 µg/mL
  MIC: 2 µg/mL
Pseudomonas aeruginosa [4]; CF Pseudomonas isolate NB11
  MBC: 4 µg/mL
  MIC: 1 µg/mL
Pseudomonas aeruginosa [4]; CF Pseudomonas isolate NB12
  MBC: 8 µg/mL
  MIC: 4 µg/mL
Pseudomonas aeruginosa [4]; CF Pseudomonas isolate NB13
  MBC: 8 µg/mL
  MIC: 2 µg/mL
Pseudomonas aeruginosa [4]; CF Pseudomonas isolate NB14
  MBC: 4 µg/mL
  MIC: 2 µg/mL
Pseudomonas aeruginosa [4]; CF Pseudomonas isolate NB15
  MBC: 8 µg/mL
  MIC: 2 µg/mL
Pseudomonas aeruginosa [4]; CF Pseudomonas isolate NB16
  MBC: 4 µg/mL
  MIC: 2 µg/mL
Pseudomonas aeruginosa [4]; CF Pseudomonas isolate NB17
  MBC: 4 µg/mL
  MIC: 1 µg/mL
Pseudomonas aeruginosa [4]; CF Pseudomonas isolate NB18
  MBC: 4 µg/mL
  MIC: 1 µg/mL
Pseudomonas aeruginosa [4]; CF Pseudomonas isolate NB19
  MBC: 4 µg/mL
  MIC: 2 µg/mL
Pseudomonas aeruginosa [4]; CF Pseudomonas isolate NB20
  MBC: >8 µg/mL
  MIC: 2 µg/mL
Pseudomonas aeruginosa [4]; [8]
  MBC 90: 8 µg/mL
  MIC90: 2 µg/mL
Pseudomonas aeruginosa [4]; second MBC 50 line of the summary, Stenotrophomonas, values equal those of the CF Pseudomonas isolates
  MBC 50: 4 µg/mL
Pseudomonas aeruginosa [4]; second MBC 90 line of the summary, Stenotrophomonas, values equal those of the CF Pseudomonas isolates
  MBC 90: 8 µg/mL
Burkholderia cenocepacia; 10 CF Burkholderia isolates
  MBC 50: >32 µg/mL
  MBC 90: >32 µg/mL
  MIC50: >32 µg/mL
  MIC90: >32 µg/mL
Burkholderia cenocepacia; [9]
  MBC 90: > 32 µg/mL
  MIC90: > 32 µg/mL
Burkholderia cenocepacia; Burkholderia, each drug alone
  MBC 50: >32 µg/mL
  MBC 90: >32 µg/mL
  MIC50: >32 µg/mL
  MIC90: >32 µg/mL
Burkholderia cenocepacia; CF Burkholderia isolate NB21
  MBC: >32 µg/mL
  MIC: >32 µg/mL
Burkholderia cenocepacia; CF Burkholderia isolate NB22
  MBC: >32 µg/mL
  MIC: >32 µg/mL
Burkholderia cenocepacia; CF Burkholderia isolate NB23
  MBC: >32 µg/mL
  MIC: >32 µg/mL
Burkholderia cenocepacia; CF Burkholderia isolate NB24
  MBC: >32 µg/mL
  MIC: >32 µg/mL
Burkholderia cenocepacia; CF Burkholderia isolate NB25
  MBC: >32 µg/mL
  MIC: >32 µg/mL
Burkholderia cenocepacia; CF Burkholderia isolate NB26
  MBC: >32 µg/mL
  MIC: 32 µg/mL
Burkholderia cenocepacia; CF Burkholderia isolate NB27
  MBC: >32 µg/mL
  MIC: >32 µg/mL
Burkholderia cenocepacia; CF Burkholderia isolate NB28b
  MBC: >32 µg/mL
  MIC: >32 µg/mL
Burkholderia cenocepacia; CF Burkholderia isolate NB29
  MBC: >32 µg/mL
  MIC: >32 µg/mL
Burkholderia cenocepacia; CF Burkholderia isolate NB30
  MBC: >32 µg/mL
  MIC: >32 µg/mL
[5]; [10]
  MBC 50: >32 µg/mL
  MBC 90: >32 µg/mL
  MIC50: 16 µg/mL
  MIC90: >32 µg/mL
[5]; [11]
  MBC: 32 µg/mL
  MIC: 2 µg/mL
[5]; [12]
  MBC: 8 µg/mL
  MIC: 2 µg/mL
[5]; [13]
  MBC: >32 µg/mL
  MIC: 16 µg/mL
[5]; [14]
  MBC: >32 µg/mL
  MIC: 32 µg/mL
[5]; [15]
  MBC: 16 µg/mL
  MIC: 8 µg/mL
[5]; [16]
  MBC: >32 µg/mL
  MIC: >32 µg/mL
[5]; [17]
  MBC: >32 µg/mL
  MIC: 32 µg/mL
[5]; [18]
  MBC: >32 µg/mL
  MIC: >32 µg/mL
[5]; [19]
  MBC: 4 µg/mL
  MIC: 1 µg/mL
[5]; [20]
  MBC: >32 µg/mL
  MIC: 16 µg/mL
[5]; [21]
  MBC: 32 µg/mL
  MIC: 8 µg/mL
[5]; [22]
  MBC 90: > 32 µg/mL
  MIC90: > 32 µg/mL
[5]; [23]
  MBC 50: >32 µg/mL
  MBC 90: >32 µg/mL
  MIC50: 16 µg/mL
  MIC90: >32 µg/mL
Acinetobacter baumannii [6]; 10 Acinetobacter isolates
  MBC 50: 4 µg/mL
  MBC 90: >16 µg/mL
  MIC50: 1 µg/mL
  MIC90: 1 µg/mL
Acinetobacter baumannii [6]; [24]
  MBC 90: > 16 µg/mL
  MIC90: 1 µg/mL
Acinetobacter baumannii [6]; Acinetobacter isolate NB31
  MBC: 1 µg/mL
  MIC: 1 µg/mL
Acinetobacter baumannii [6]; Acinetobacter isolate NB32
  MBC: 8 µg/mL
  MIC: 1 µg/mL
Acinetobacter baumannii [6]; Acinetobacter isolate NB33
  MBC: 4 µg/mL
  MIC: 1 µg/mL
Acinetobacter baumannii [6]; Acinetobacter isolate NB34
  MBC: 1 µg/mL
  MIC: 1 µg/mL
Acinetobacter baumannii [6]; Acinetobacter isolate NB35
  MBC: 4 µg/mL
  MIC: 1 µg/mL
Acinetobacter baumannii [6]; Acinetobacter isolate NB36
  MBC: 1 µg/mL
  MIC: 1 µg/mL
Acinetobacter baumannii [6]; Acinetobacter isolate NB37
  MBC: >16 µg/mL
  MIC: 1 µg/mL
Acinetobacter baumannii [6]; Acinetobacter isolate NB38
  MBC: >16 µg/mL
  MIC: 1 µg/mL
Acinetobacter baumannii [6]; Acinetobacter isolate NB39
  MBC: 8 µg/mL
  MIC: 1 µg/mL
Acinetobacter baumannii [6]; Acinetobacter isolate NB40
  MBC: >16 µg/mL
  MIC: 1 µg/mL
Acinetobacter baumannii [6]; Acinetobacter, each drug alone
  MBC 50: 4 µg/mL
  MBC 90: >16 µg/mL
  MIC50: 1 µg/mL
  MIC90: 1 µg/mL
